Values of other authors in patent publication US12364655B2, “Semisolid oral dispersions comprising active agents” (The Procter & Gamble Company, priority 2019, dated 2025).
Where two headings read alike, the source gives them in different places.

Conditions: from supplier Safety Data Sheet, supplier Product Data Sheet (estimated) or Wikipedia

NC(N)=O.OO [Urea Peroxide, Urea Hydrogen Peroxide Adduct]
Solubility in Water (number of parts by weight per 100 parts by weight of water): 80 parts by weight per 100 parts by weight of water | Solubility in Water (number of parts by weight per 100 parts by weight of water) (listed as urea peroxide): 80 parts by weight per 100 parts
